Where a name gives a salt, the structure may show the parent alone.

Experimental findings from patent publication US11020360B2, “Methods, compounds, compositions and vehicles for delivering 3-amino-1-propanesulfonic acid” (Bellus Health, Inc., priority 2006, dated 2021) are described below.

A short description of the series: Stability in water, at pH 1.5 and PBS. It counts as physicochemical. The note with it: 37° C., 60 min. How it is done: Stability of exemplary compounds was determined in water, aqueous acidic solution (pH 1.5, HCl) and PBS (phosphate buffered saline) solution using ESI-MS (electrospray ionization mass spectrometry) as the detecting instruments. In general a 2 μg/mL pro-drug solution containing 1 μg/ml IS (internal standard) was prepared and incubated for 60 min. For water stability the incubation was performed at room temperature and for stability in acidic solution and in buffer. The incubation temperature was 37° C. Samples were analyzed for prodrug content at time points 0 and 60 min. using MS. The % changes in peak area ratio after 60 minutes for each test compound tested are calculated using the average values from six replicate runs. The compounds tested included Compounds A1 to A19, Compounds B5 and B6 and Compounds C1 to C26. Except for C26 which was found unstable at pH 1.5 and in PBS, all other compounds were judged to be stable under all conditions tested with less than about 15%-20% concentration change after 60 minutes.

On to `Cc1oc(=O)oc1COC(=O)NCCCS(=O)(=O)O` [Compound C26, 3-({[(5-methyl-2-oxo-1,3-dioxol-4-yl)methoxy]carbonyl}amino)-1-propanesulfonic Acid Sodium Salt], for which the “Stability in PBS” value is “unstable” and the “Stability in aqueous acidic solution (pH 1.5, HCl)” value is “unstable”.
